Measured values published in article PMC6942458 (ACS chemical biology, 2019).

Experiments:
[1] = target: T1, SIRT3 (Homo sapiens, UniProt Q9NTG7); test: SIRT3 deacetylase inhibition assay; assay type: biochemical
T1 sequence (Q9NTG7 1-399): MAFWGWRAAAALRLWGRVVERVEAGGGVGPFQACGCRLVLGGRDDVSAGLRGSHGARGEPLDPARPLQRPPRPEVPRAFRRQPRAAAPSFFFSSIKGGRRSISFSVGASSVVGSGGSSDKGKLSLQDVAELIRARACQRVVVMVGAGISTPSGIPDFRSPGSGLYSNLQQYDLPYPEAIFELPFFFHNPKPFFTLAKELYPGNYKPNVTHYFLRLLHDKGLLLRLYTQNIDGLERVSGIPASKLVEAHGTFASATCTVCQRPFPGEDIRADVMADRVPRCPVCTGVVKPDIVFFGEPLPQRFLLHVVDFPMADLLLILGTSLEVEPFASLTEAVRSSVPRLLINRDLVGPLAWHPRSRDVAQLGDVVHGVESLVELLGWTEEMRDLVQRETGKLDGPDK

[2] = system: MCF7 cells; test: MCF7 cell permeability/availability assay; assay type: in vitro ADME; conditions: for level of inhibitor detected in cells: 6 hours
[3] = system: MCF7 cells; test: Soft agar colony formation assay; assay type: cell-based; conditions: MCF7, 12 μM, 10 days
[4] = 50 mM DMSO stock diluted to 5 mg/ml in PBS
[5] = system: various cancer cell lines; conditions: breast, pancreatic, colon, lung and many more; cited from earlier work
[6] = system: breast cancers; conditions: xenograft model and genetic model of breast cancers in mice; cited from earlier work

In the case of `CCCCCCCCCCCCCC(=S)NCCCCC(NC(=O)OCc1ccccc1)C(=O)Nc1ccccc1` (centres unmarked) [TM], the “SIRT3 inhibition at 83 μM” value [1] is reported as “did not inhibit”, the “level of inhibitor detected in cells” value ([2]; MCF7, 25 μM) is reported as “about 0.29 μg/million cells” and the “level of inhibitor detected in cells” value ([2]; MCF7, 50 μM) is reported as ~0.30 μg/million cells. For the same molecule, the “compound detected in treated cells” value ([2]; MCF7 cells treated 6 hours, LC-MS) was “approximately 0.30 μg/million cells”, the “colony formation in soft agar” value [3] was “formed many colonies” and the “solubility in PBS (precipitation)” value [4] was “white precipitation formed instantly”. For the same molecule, the “cytotoxicity in cancer cell lines” value [5] was “cytotoxic” and the tumor growth [6] was “inhibited tumor growth”.
